Data: patent publication US20160109430A1, “METHODS FOR DRUG DISCOVERY” (Memorial Sloan-Kettering Cancer Center, priority 2014, published 2016)

What was measured:
Format in all cases: cell-based
U2OS cells = assay: Senescence analysis (SA-β-gal) in U2OS cells
Description: (§1) Cells were plated at a concentration of 25,000 per well in a 4-well chamber slides (Lab-Tek) and treated for seven days with drug and stained for senescence-associated β-galactosidase (Cell Signaling kit #9860). Cell number was quantitated by DAPI staining and β-galactosidase staining quantitated as a proportion of total cells.

LS8107 cells [1] = assay: Senescence analysis (SA-β-gal) in LS8107 cells
Description: as §1

LS8817 cells [2] = assay: ATRX foci per cell by immunofluorescence in LS8817 cells
Description: (§2) Cells were washed twice with PBS and fixed with 4% paraformaldehyde at room temperature for 20 minutes. Cells were again washed twice with PBS and treated with 0.5% triton X-100 in PBS. Cells were again washed twice with PBS and blocked in 5% BSA in PBS for 30 minutes at room temperature. Cells were incubated with anti-ATRX antibody, obtained from Bethyl, Cat No. A301-045A, diluted at 1:2000 in PBS (stock is provided at 1 mg/ml) overnight at 4 degrees Celsius. The following day, cells were washed twice with PBS and incubated with Alexa Fluor-488 anti-rabbit secondary diluted at 1:500 in PBS (stock was provided at 2 mg/ml) for one hour at room temperature. Cells were washed twice with PBS and incubated with 0.1 μg/ml DAPI for 5 minutes at room temperature. Cells were washed three times with PBS and slides were mounted in Vectashield fluorescence mounting media. Slides were imaged using a Zeiss Axioplan 2 Upright Microscope.

LS8107 cells [3] = assay: ATRX foci per cell by immunofluorescence in LS8107 cells; details: PD0332991 followed by shMDM2, compared to untreated or PD0332991 alone
Description: as §2

LS8817 cells [4] = assay: Senescence-associated β-galactosidase / senescence analysis in LS8817 cells; details: for accumulation of SA-β-gal staining: 100 μM doxorubicin for five days

SMILES	cell state (quiescent or senescent) on CDK4 inhibition, by SA-β-gal (U2OS cells; U2OS cells expressing exogenous ATRX)	cell state (quiescent or senescent) on CDK4 inhibition (U2OS cells; U2OS cells that do not express endogenous ATRX)	cell state (quiescent or senescent) (LS8107 cells [1]; CDK4 inhibitor alone)	accumulation of SA-β-gal (LS8107 cells [1]; PD0332991 followed by shMDM2)	average number of ATRX foci per cell (LS8817 cells [2]; LS8817 cells, PD0332991 1 μM or 0.1 μM)	number of ATRX foci per cell (LS8817 cells [2]; LS8817 cells, PD0332991 in the presence of exogenous MDM2 (tet-on-MDM2-Flag, doxycycline), compared to PD0332991 alone)	number of ATRX foci per cell (LS8107 cells [3])	cell state (quiescent or senescent) (LS8817 cells [4]; LS8817 cells, 1 μM or 0.1 μM)	ATRX foci in cells expressing shATRX (LS8817 cells [2]; LS8817 cells expressing shATRX, 100 μM doxorubicin for five days)	average number of ATRX foci per cell (LS8817 cells [2]; LS8817 cells, 100 μM doxorubicin for five days, control cells about 8)	accumulation of SA-β-gal staining (LS8817 cells [4]; LS8817 cells expressing shATRX)	accumulation of SA-β-gal staining (LS8817 cells [4]; LS8817 cells expressing shSCR)
CC(=O)c1c(C)c2cnc(Nc3ccc(N4CCNCC4)cn3)nc2n(C2CCCC2)c1=O [PD0332991]	entering a senescent state	entering a quiescent state versus a senescent state	entered a quiescent state	accumulation of SA-β-gal	significant increase	prevented an increase	significant increase	enter a senescent state	–	–	–	–
COc1cccc2c1C(=O)c1c(O)c3c(c(O)c1C2=O)C[C@@](O)(C(=O)CO)C[C@@H]3O[C@H]1C[C@H](N)[C@H](O)[C@H](C)O1 [doxorubicin]	–	–	–	–	–	–	–	–	not observed	about 35	did not significantly accumulate	significantly accumulated
